Data on three compounds can be found in US9096601B2 (CSPC Zhongqi Pharmaceutical Technology (Shijiazhuang) Co., …, priority 2010, dated 2015).

Where two headings read alike, the source gives them in different places. Where only a bound is given, the exact number is not on record here.

The target in one experiment is ALK (Homo sapiens (Human), UniProt Q9UM73). Put plainly: Kinase inhibitory activity, isotopic labeling (γ-33P-ATP). The format is biochemical. As to conditions: compound at 10 μM. How it is done: (§1) The object of this assay was to test the inventive compounds for the kinase inhibitory activity in vitro. In this assay, an isotopic labeling method was used to label the γ phosphate group on ATP. EGFR (including wild type, L858R mutant type and L858R/T790M double mutant type), VEGFR2, ALK, BTK, c-KIT, c-SRC, MET, PDGFRα and FLT3 kinases were tested in vitro for the activity inhibition. Staurosporine was used as a reference molecule (or referred to as a positive control). […] The IC50 value can be obtained by the calculation of the inhibitory rates at a series of different concentrations of the tested compounds.
(§2) To a reaction tube were successively added the buffer solution (8 mM MOPS, pH 7.0, 0.2 mM EDTA, 10 mM MnCl2), the kinase to be tested (5-10 mU) (EGFR/ALK/BTK/c-KIT/c-SRC/MET/PDGFRα/VEGFR2), the substrate for the kinase to be tested (a reference material), 10 mM of the solution of magnesium acetate and γ-^33 P-ATP, and different concentrations of the tested compounds. […] The reaction was terminated with […] of the 3% phosphate buffer solution. 10 μL of the reaction liquid was titrated on the Filtermat A membrane. The membrane was washed with 75 mM of the phosphate solution thrice (5 minutes each time), and then with methanol once, and finally dried. The membrane was subjected to a scintillation counting. The value of the scintillation counting reflected the phosphorylation level of the substrate and therefore could characterize the inhibition of the kinase activity.

In another experiment the target is BTK (Homo sapiens (Human), UniProt Q06187). The description is as above. The format is biochemical. The conditions noted are these: compound at 10 μM. How it is done:
as §1, §2

In the next experiment the target is FLT3 (Homo sapiens (Human), UniProt P36888). The description is as above. The format is biochemical. The conditions noted are these: compound at 10 μM. How it is done: as §1, §2
The target in the next experiment is MET (Homo sapiens (Human), UniProt P08581). Described as above. The format is biochemical. As to conditions: compound at 10 μM. As to the method: as §1, §2
A further experiment has as its target PDGFRα (Homo sapiens (Human), UniProt P16234). Described as above. The format is biochemical. As to conditions: compound at 10 μM. How it is done:
as §1, §2

For another experiment, the target named is VEGFR2 (Homo sapiens (Human), UniProt P35968). The description is as above. The format is biochemical. How it is done:
as §1, §2

The target of the next experiment is c-KIT (Homo sapiens (Human), UniProt P10721). The experiment is described as above. As to conditions: compound at 10 μM. The format is biochemical. How it is done: as §1, §2
The next experiment deals with c-SRC (Homo sapiens (Human), UniProt P12931). Described as above. The format is biochemical. As to conditions: compound at 10 μM. How it is done:
as §1, §2

Experiment [1] has as its system non-small cell lung carcinoma cell strain H1975 (EGFR L858R/T790M mutation). Put plainly: In-vitro tumor cell proliferation inhibition, MTT. The format is cell-based, human. As to conditions: 72 hours.
Experiment [2] deals with non-small cell lung carcinoma cell strain H292 (EGFR WT). Put plainly: In-vitro tumor cell proliferation inhibition, MTT. The conditions noted are these: 72 hours. The format is cell-based, human.
Experiment [3] concerns non-small cell lung carcinoma cell strain HCC827. Put plainly: In-vitro tumor cell proliferation inhibition, MTT. The format is cell-based, human. As to conditions: 72 hours. In a few lines: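 Cells grown in RPMI-1640 with 10% FBS, seeded overnight (HCC827 at 6×10^4 cells/ml), then exposed to graded compound concentrations for 72 h at 37 °C, 5% CO2, with 1% DMSO solvent control. MTT absorbance at 570 nm; inhibition relative to control; triplicate wells, ≥3 repeats.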

The subject of experiment [4] is non-small cell lung carcinoma cell strain PC-9 (EGFR delE746-A750 deletion mutation). Put plainly: In-vitro tumor cell proliferation inhibition, MTT. The format is cell-based, human. As to conditions: 72 hours.
Experiment [5] deals with acute myelogenous leukemia cell strain MV4-11. Put plainly: In-vitro tumor cell proliferation inhibition, MTT. The format is cell-based, human.
Experiment [6] concerns breast carcinoma cell strain BT474. Put plainly: In-vitro tumor cell proliferation inhibition, MTT. The format is cell-based, human. Summed up:
(§3)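 A431, HCC827, SW620 and BT474 cells (HCC827 seeded at 6×10^4 cells/ml) treated overnight-after-plating with graded compound concentrations for 72 h at 37° C; MTT read at 570 nm. Inhibition calculated versus untreated control, triplicate wells, ≥3 repeats; reported as IC50 or inhibitory rate.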

Experiment [7] concerns breast carcinoma cell strain MDA-MB-468. Put plainly: In-vitro tumor cell proliferation inhibition, MTT. The format is cell-based, human.
Experiment [8] has as its system chronic granulocytic leukemia cell strain K562. Put plainly: In-vitro tumor cell proliferation inhibition, MTT. The format is cell-based, human.
Experiment [9] deals with colon cancer cell strain HCT116. Put plainly: In-vitro tumor cell proliferation inhibition, MTT. The format is cell-based, human.
Experiment [10] relates to colon cancer cell strain SW480. Put plainly: In-vitro tumor cell proliferation inhibition, MTT. The format is cell-based, human.
Experiment [11] has as its system colon cancer cell strain SW620. Put plainly: In-vitro tumor cell proliferation inhibition, MTT. The format is cell-based, human. In a few lines: as §3
Experiment [12] has as its system gastric cancer cell strain MK-45. Put plainly: In-vitro tumor cell proliferation inhibition, MTT. The format is cell-based, human. The conditions noted are these: 72 hours, read-out: MK45 (IC50).
The subject of experiment [13] is liver cancer cell strain Hep G2. Put plainly: In-vitro tumor cell proliferation inhibition, MTT. The format is cell-based, human.
For experiment [14], the system named is malignant melanoma cell strain A375. Put plainly: In-vitro tumor cell proliferation inhibition, MTT. The format is cell-based, human.
Experiment [15] deals with squamous cell carcinoma cell strain A431. Put plainly: In-vitro tumor cell proliferation inhibition, MTT. The format is cell-based, human. In a few lines:
as §3

Setting [16] is: 72 hours, read-out: HEPG2 (IC50).

Sequence of MET (P08581 25-1390): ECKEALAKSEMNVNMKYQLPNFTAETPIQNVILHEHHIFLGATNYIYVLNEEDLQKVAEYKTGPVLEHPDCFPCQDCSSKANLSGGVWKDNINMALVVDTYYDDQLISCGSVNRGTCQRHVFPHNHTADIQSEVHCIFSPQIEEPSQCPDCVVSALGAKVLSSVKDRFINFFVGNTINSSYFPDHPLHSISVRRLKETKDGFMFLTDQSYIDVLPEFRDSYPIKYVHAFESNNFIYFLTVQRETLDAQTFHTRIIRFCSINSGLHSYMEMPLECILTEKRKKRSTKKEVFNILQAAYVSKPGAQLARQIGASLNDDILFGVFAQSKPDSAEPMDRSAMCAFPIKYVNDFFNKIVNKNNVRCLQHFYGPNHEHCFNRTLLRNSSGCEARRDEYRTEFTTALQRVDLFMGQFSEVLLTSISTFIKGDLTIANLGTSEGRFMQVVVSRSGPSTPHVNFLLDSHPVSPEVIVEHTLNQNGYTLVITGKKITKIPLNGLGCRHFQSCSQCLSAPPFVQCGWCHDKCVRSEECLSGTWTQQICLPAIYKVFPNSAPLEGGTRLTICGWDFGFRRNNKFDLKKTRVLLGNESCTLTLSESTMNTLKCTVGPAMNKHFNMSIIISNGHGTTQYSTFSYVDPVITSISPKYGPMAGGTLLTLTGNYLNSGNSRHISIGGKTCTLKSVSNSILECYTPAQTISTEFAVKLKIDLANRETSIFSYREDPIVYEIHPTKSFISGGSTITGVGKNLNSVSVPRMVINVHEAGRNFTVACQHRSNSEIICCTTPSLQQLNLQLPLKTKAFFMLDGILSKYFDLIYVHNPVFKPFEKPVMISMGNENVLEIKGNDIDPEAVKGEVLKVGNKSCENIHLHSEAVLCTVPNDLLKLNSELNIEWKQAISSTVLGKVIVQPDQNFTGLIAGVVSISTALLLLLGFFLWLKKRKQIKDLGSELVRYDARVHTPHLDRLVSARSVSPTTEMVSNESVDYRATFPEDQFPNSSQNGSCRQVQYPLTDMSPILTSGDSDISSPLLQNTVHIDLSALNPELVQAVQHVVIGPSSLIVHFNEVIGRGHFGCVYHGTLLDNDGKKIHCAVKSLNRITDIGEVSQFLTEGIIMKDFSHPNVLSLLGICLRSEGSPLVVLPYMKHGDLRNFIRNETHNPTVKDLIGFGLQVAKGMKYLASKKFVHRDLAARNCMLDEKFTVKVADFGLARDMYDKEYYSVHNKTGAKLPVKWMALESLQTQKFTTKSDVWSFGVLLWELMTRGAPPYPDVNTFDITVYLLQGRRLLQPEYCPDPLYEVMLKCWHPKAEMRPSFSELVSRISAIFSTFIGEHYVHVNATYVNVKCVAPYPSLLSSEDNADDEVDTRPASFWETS
Sequence of BTK (Q06187 whole entry): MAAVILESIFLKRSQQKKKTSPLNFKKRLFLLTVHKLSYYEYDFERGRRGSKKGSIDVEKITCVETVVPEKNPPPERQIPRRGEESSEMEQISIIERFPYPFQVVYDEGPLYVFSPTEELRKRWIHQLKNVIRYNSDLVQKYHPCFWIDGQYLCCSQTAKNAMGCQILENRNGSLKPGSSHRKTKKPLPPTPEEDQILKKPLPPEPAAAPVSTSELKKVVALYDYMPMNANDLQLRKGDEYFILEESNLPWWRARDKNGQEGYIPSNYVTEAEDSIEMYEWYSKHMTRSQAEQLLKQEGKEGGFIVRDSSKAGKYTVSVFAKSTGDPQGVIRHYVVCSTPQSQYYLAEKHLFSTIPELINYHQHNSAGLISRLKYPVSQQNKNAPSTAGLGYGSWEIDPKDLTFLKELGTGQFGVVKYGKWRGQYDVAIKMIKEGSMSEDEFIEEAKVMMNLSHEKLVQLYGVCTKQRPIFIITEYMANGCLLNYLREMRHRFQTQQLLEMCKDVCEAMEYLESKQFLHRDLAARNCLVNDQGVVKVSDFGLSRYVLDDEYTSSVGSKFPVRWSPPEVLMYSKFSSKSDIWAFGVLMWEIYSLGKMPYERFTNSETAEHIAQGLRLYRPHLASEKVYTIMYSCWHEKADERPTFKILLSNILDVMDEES
Sequence of ALK (Q9UM73 19-1620): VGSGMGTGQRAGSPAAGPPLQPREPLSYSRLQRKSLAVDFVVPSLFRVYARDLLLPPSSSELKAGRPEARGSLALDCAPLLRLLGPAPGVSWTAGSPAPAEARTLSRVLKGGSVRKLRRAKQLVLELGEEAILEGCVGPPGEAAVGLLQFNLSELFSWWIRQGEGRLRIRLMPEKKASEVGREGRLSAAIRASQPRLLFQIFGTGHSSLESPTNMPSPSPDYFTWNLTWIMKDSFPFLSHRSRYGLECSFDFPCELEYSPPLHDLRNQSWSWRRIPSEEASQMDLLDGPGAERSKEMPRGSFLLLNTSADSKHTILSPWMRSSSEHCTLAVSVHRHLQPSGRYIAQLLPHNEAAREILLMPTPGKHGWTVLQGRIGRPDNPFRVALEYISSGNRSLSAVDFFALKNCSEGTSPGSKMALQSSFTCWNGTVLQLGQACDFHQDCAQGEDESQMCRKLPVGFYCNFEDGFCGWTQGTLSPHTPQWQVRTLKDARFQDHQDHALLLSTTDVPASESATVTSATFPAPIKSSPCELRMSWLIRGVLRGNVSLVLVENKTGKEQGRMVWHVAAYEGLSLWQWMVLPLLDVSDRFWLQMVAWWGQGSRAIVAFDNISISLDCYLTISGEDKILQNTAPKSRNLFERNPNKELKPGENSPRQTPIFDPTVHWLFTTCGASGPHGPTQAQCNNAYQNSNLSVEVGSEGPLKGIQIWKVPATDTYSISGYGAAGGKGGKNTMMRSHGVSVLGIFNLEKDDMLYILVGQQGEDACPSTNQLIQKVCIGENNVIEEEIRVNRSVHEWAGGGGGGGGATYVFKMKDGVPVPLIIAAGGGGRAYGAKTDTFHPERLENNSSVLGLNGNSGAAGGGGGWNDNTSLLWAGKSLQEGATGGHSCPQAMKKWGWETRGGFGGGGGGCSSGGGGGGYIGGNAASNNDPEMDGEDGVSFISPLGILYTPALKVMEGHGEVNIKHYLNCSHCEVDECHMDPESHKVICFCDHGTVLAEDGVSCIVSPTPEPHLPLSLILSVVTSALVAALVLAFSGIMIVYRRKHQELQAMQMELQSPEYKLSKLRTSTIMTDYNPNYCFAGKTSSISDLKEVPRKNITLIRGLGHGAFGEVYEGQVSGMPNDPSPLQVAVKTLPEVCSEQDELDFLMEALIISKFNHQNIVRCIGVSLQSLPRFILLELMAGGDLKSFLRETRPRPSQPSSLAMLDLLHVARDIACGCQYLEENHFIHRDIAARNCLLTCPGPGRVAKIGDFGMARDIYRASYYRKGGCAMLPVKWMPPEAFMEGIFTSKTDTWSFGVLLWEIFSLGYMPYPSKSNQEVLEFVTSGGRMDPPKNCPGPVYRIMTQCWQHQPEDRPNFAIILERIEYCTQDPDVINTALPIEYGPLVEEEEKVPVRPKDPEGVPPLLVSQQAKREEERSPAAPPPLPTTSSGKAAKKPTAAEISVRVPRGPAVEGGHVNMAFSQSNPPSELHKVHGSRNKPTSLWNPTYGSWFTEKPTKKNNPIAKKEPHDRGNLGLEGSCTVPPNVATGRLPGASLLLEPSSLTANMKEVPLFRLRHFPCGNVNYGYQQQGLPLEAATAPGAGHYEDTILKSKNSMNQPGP
Sequence of VEGFR2 (P35968 20-1356): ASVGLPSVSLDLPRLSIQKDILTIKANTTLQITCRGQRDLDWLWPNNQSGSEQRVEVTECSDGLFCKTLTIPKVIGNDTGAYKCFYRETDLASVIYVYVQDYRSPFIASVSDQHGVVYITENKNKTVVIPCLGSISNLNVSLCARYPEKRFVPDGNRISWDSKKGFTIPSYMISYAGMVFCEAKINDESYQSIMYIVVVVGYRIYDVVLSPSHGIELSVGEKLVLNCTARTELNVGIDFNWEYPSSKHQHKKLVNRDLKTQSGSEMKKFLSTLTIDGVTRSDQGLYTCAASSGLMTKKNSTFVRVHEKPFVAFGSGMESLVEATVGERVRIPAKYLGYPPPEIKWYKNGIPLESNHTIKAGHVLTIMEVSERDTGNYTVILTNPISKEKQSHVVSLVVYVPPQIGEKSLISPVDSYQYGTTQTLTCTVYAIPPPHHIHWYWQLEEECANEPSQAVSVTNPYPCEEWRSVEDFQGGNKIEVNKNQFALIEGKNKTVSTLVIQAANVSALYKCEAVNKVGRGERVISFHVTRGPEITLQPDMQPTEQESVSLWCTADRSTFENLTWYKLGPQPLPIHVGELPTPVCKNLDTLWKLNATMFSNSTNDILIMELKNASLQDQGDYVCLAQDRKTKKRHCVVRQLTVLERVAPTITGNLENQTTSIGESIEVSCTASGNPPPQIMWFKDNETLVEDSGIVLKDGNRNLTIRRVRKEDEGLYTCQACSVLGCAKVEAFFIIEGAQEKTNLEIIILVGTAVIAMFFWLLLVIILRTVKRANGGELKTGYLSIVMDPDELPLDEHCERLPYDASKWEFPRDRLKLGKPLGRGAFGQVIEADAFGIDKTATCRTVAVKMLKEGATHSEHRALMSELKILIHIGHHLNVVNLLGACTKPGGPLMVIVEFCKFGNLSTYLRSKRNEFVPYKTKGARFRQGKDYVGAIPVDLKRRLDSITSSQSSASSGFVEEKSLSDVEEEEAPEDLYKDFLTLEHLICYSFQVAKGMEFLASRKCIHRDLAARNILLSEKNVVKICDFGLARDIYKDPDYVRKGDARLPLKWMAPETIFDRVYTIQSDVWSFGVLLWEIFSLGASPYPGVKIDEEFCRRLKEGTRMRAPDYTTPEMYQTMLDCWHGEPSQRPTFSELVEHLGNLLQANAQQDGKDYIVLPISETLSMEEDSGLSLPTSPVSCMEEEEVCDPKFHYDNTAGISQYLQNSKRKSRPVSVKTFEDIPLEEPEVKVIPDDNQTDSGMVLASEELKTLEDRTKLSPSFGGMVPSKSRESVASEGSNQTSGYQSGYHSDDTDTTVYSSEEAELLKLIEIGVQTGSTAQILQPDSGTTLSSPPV

For `CC(C)n1c(Nc2ccc(OCc3cccc(F)c3)c(Cl)c2)nc2cnc(Nc3ccc(N4CCN(C)CC4)cc3)nc21` [Compounds 8-19], the “The kinase activity inhibitory rate (%) by the tested compounds at 10 μM ALK” value on ALK is on record as 90%. The “The kinase activity inhibitory rate (%) by the tested compounds at 10 μM BTK” value at BTK was 71%. Also, the “The kinase activity inhibitory rate (%) by the tested compounds at 10 μM FLT3” value on FLT3 is 43%. Moreover, at MET, the “The kinase activity inhibitory rate (%) by the tested compounds at 10 μM MET” value stood at 97%. For the same compound, the “The kinase activity inhibitory rate (%) by the tested compounds at 10 μM PDGFRα” value on PDGFRα amounted to 34%. Also, the IC50 at VEGFR2 (ATP 90 μM (Km)) is above 1 µM; in experiment [1] it was 7.32 µM; in experiment [2], 0.316 µM; in experiment [3], 0.912 µM; in [4], 0.459 µM; in experiment [5] (72 hours) it was 4.78 µM. The IC50 in experiment [6] (72 hours) is 4.99 µM; in [7] (72 hours), 9.98 µM; in experiment [8] (72 hours), 2.79 µM; in [9] (72 hours), above 1 µM; in experiment [10] (72 hours), above 10 µM; in experiment [11] (72 hours), 1.99 µM. For the same compound, the IC50 amounted to 1.01 µM in experiment [12], 5.42 µM in [13] (setting [16]), 1.66 µM in [14] (72 hours) and 9.32 µM in [15] (72 hours). In addition, on c-KIT, the “The kinase activity inhibitory rate (%) by the tested compounds at 10 μM c-KIT” value worked out at 12%. Further, on c-SRC, the “The kinase activity inhibitory rate (%) by the tested compounds at 10 μM c-SRC” value is given as 97%.

`CN1CCN(c2ccc(Nc3ncc4nc(Nc5ccccc5)n(C5CCCC5)c4n3)cc2)CC1` [Compounds 8-26]: the “The kinase activity inhibitory rate (%) by the tested compounds at 10 μM ALK” value on ALK was 71%. The “The kinase activity inhibitory rate (%) by the tested compounds at 10 μM BTK” value on BTK was 99%. Also, the “The kinase activity inhibitory rate (%) by the tested compounds at 10 μM FLT3” value at FLT3 is recorded as 86%. Moreover, the “The kinase activity inhibitory rate (%) by the tested compounds at 10 μM MET” value on MET was determined as 86%. Further, the “The kinase activity inhibitory rate (%) by the tested compounds at 10 μM PDGFRα” value on PDGFRα stood at 95%. Further, the IC50 was 0.007 µM against VEGFR2 (ATP 90 μM (Km)); 0.369 µM in [1]; 0.0107 µM in experiment [2]; 0.0011 µM in experiment [3]; 0.0002 µM in experiment [4]; 0.093 µM in experiment [5] (72 hours). Moreover, the IC50 in experiment [6] (72 hours) turned out to be 0.107 µM; in experiment [7] (72 hours) it was 0.299 µM; in experiment [8] (72 hours), 0.12 µM; in [9] (72 hours), 0.239 µM; in [10] (72 hours), 3.44 µM; in experiment [11] (72 hours), 0.282 µM. Moreover, the IC50 was above 1 µM in [12], 6.25 µM in [13] (setting [16]), 0.378 µM in experiment [14] (72 hours) and 1.05 µM in experiment [15] (72 hours). The “The kinase activity inhibitory rate (%) by the tested compounds at 10 μM c-KIT” value at c-KIT is 94%. Further, on c-SRC, the “The kinase activity inhibitory rate (%) by the tested compounds at 10 μM c-SRC” value is given as 99%.

`CC(C)n1c(Nc2ccc(F)c(Cl)c2)nc2cnc(Nc3ccc(C(=O)NN4CCN(C)CC4)cc3F)nc21` [Compound 8-5, 3-fluoro-4-(9-isopropyl-8-(3-chloro-4-fluorophenylamino)-9H-purin-2-ylamino)-N-(4-methylpiperazin-1-yl)benzamide]: the inhibition at 10 µM on ALK (read-out: The kinase activity inhibitory rate (%) by the tested compounds at 10 μM ALK) is 54%; on BTK (read-out: The kinase activity inhibitory rate (%) by the tested compounds at 10 μM BTK), 78%; on FLT3 (read-out: The kinase activity inhibitory rate (%) by the tested compounds at 10 μM FLT3) it was 35%; at MET (read-out: The kinase activity inhibitory rate (%) by the tested compounds at 10 μM MET), 64%; at PDGFRα (read-out: The kinase activity inhibitory rate (%) by the tested compounds at 10 μM PDGFRα), 19%; on c-KIT (read-out: The kinase activity inhibitory rate (%) by the tested compounds at 10 μM c-KIT), 54%. Moreover, the inhibition at 10 µM on c-SRC (read-out: The kinase activity inhibitory rate (%) by the tested compounds at 10 μM c-SRC) came out at 32%. Further, the IC50 against VEGFR2 is above 1 µM; in [5] (Homo sapiens, MV4-11, 72 hours), 1.77 µM; in [6] (Homo sapiens, BT-474, 72 hours) it was 1.86 µM; in experiment [7] (Homo sapiens, MDA-MB-468, 72 hours) it was 6.13 µM; in experiment [8] (Homo sapiens, K562, 72 hours), 3.73 µM; in [9] (Homo sapiens, HCT-116, 72 hours), 7.81 µM. For the same compound, the IC50 in [10] (Homo sapiens, SW480, 72 hours) is above 10 µM; in experiment [11] (Homo sapiens, SW-620, 72 hours), 5.57 µM; in experiment [12] (Homo sapiens), above 1 µM; in experiment [13] (Homo sapiens, HepG2, 72 hours), above 10 µM; in experiment [14] (Homo sapiens, A-375, 72 hours), above 1 µM; in [15] (Homo sapiens, A-431, 72 hours), 9.29 µM.

In general, IC50 refers to the concentration at which inhibition is half-maximal.
